Measured values: US10196601B2, “Cell culture medium and process for controlling α-amidation and/or C-terminal amino acid cleavage of polypeptides” (LEK PHARMACEUTICALS D.D., priority 2013, dated 2019)
Where two headings read alike, the source gives them in different places.

Experiments:
PAM enzyme [1] = assay: amount of C-terminal α-amidated Pro of the expressed antibody (in vivo PAM activity), SF system; type: cell-based, Chinese hamster
Method: (§1) Experiments (using different illustrative glycoproteins) were performed in shake flask (SF) systems, where […] SFs with a final volume of 125 ml were used. All experiments started by thawing of a research working cell bank (rWCB), such as CHO cell line DP-12 (CHO DP-12 clone #1934 [CHO DP-12, clone #1934 aIL8.92 NB 28605/14] (ATCC® CRL-12445™) producing recombinant human anti-IL-8 or CHO-SSF cells expressing a monoclonal antibody directed to tumour necrosis factor, TNF (see PCT/EP2011/074181 for further details) followed by several subcultivations under standard conditions according to manufacture instructions until enough cells for the inoculation were available For all experiments, a 14 days generic fed batch fermentation was used and a generic feeding regime comprising feeding of glucose, glutamine and amino acids was performed. All SFs were incubated in a shaker incubator (Kuhner, Switzerland) at the following conditions: temperature of 36.5° C., CO2=10% and shaking speed 200 rpm.
(§2) At the end of 14 days of BR and SF bioprocesses (i.e., on day 14), harvests were sampled to 50 ml centrifuge tubes. […] Purification was done either using AKTA chromatography system with 1 ml HiTrap column (GE Healthcare, cat. no. 11-0034-93) or TECAN Freedom EVO pipetting station with 200 μl RoboColumns (Atoll, cat. no. 01050408R).
(§3) To measure the amount of C-terminal α-amidated Pro and the amount of C-terminal Lys, Cation Exchange Chromatography (CEX) was performed according to the laboratory procedure. Main charged variants were designated as 0K, pseudo 1K (1+) and pseudo 2K (2+). The positive charge refers to the Lys or α-amidated Pro at the C-terminus of the heavy chain. Charged variants (Lys, α-amidated Pro) were differentiated by CP cleavage of C-terminal Lys followed by the same CEX analysis. Structures eluting before the main three variants were designated as AP (acidic peaks) and those eluting after them as BP (basic peaks).
(§4) The experiment was performed in 500 ml SF with a final volume of 125 ml. After 14 days of fed batch bioprocess, harvests were collected, centrifuged, sterile filtered through a PES membrane and immediately subjected to a single step affinity chromatography (AC) purification and a subsequent analysis of C-terminal α-amidation by […]. Design Expert version 7.1.3 (Stat-Ease, Inc., Minneapolis, USA) was used to build the response surface design and to perform the statistical analysis of the experimental results. A MinRes IV design was used to determine the influence of the tested trace elements on cell productivity, C-terminal α-amidation and C-terminal carboxypeptidation of the investigated monoclonal antibody. Analyzed design expert (Stat-Ease, Inc., Minneapolis, USA) responses included end of fed-batch titer, amount of C-terminal α-amidated Pro and amount of C-terminal Lys.
(§5) The experiment was performed in 500 ml SF with a final volume of 125 ml. After 14 days of fed batch bioprocess, harvests were collected, centrifuged, sterile filtered through a PES membrane and immediately subjected to a single step AC purification and a subsequent analysis of C-terminal α-amidation by […].
(§6) After performing the above described analytical steps, the measured values were inserted into the DOE program and analyzed. The α-value of statistical significance was set to 0.100, which means that factors with a P-value higher than 0.100 were excluded from the statistical mode since they were non-significant.

PAM enzyme [2] = assay: amount of C-terminal α-amidated Pro (in vivo PAM activity), BR system; type: cell-based, Chinese hamster; conditions: 5 L BR
Method: as §2, §3
(§7) All experiments were performed in 5 L BRs.

[3] = tested on: CHO cells expressing a monoclonal antibody; assay: end of fed-batch titer in shake flask (SF) fed batch culture; type: cell-based, Chinese hamster
Method: as §1, §4
Effects that were above the Bonferroni limit were certainly significant and effects that were above the t-Value limit were possibly significant. Effects that were below the t-Value limit were not selected as they were not significant. After selecting significant effects, the ANOVA statistical program was employed to confirm that only statistically significant effects were included in the model.
as §5, §6

[4] = tested on: CHO cells expressing a monoclonal antibody; assay: titer in 5 L bioreactor (BR) fed batch culture; type: cell-based, Chinese hamster; conditions: 5 L BR
Method: as §7

CHO cells [5] = assay: cell viability in SF culture (trypan blue exclusion); type: cell-based, Chinese hamster; conditions: experiment 2, SF; selenium 3 μM (data not shown)
Method: Experiments (using different illustrative glycoproteins) were performed in shake flask (SF) systems, where […] SFs with a final volume of 125 ml were used.
as §5

CP enzyme [6] = assay: amount of C-terminal Lys of the expressed antibody (in vivo CP activity), SF system; type: cell-based, Chinese hamster
Method: as §1, §2, §3, §4, §5, §6

CP enzyme [7] = assay: amount of C-terminal Lys (in vivo CP activity), BR system; type: cell-based, Chinese hamster; conditions: 5 L BR
Method: as §2, §3, §7
To test the effect of zinc on the CP activity, three different zinc chloride concentrations were tested, namely 3.7 μM, 11 μM and 22 μM. […] In regard to productivity, a constant drop of productivity was measured with the decrease of the zinc concentration.

CHO cells [8] = conditions: 5 L BR
Method: All results were finally confirmed in a bioreactor (BR) system, where 5 L glass bioreactors were used.
In both the SF and BR system, the cell growth and cell viability were measured with the Vi-Cell XR analyzer (Beckman Coulter) using the trypan blue exclusion method for cell viability determination and automated cell counting for determination of the cell concentration. The monoclonal antibody content was determined by affinity liquid chromatography (ALC). A calibration curve was made by diluting the generic reference. […] The results were expressed in gram (g) of protein per liter (L) of harvest.
The obtained SF results were finally also tested in a bioreactor (BR) environment. All experiments were performed in 5 L BRs.

Structure (SMILES): O=[Se]([O-])[O-].[Na+].[Na+] [selenium, sodium selenite]
- amount of C-terminal α-amidated Pro (PAM enzyme [1]; experiment 1, SF, 10-fold increased selenium (FIG. 4)): 4.5%
- amount of C-terminal α-amidated Pro (PAM enzyme [1]; experiment 1, SF, before 10-fold increase of selenium (FIG. 4)): 6.5%
- amount of C-terminal α-amidated Pro (PAM enzyme [1]; experiment 2, selenium 0.17 μM (FIG. 8)): 2.2%
- amount of C-terminal α-amidated Pro (PAM enzyme [1]; experiment 2, selenium 3.00 μM (FIG. 8)): 1.26%
- C-terminal α-amidated Pro (PAM enzyme [2]; 0.17 μM selenium (FIG. 12)): 9.3%
- C-terminal α-amidated Pro (PAM enzyme [2]; 2.31 μM selenium (FIG. 12)): 2.25%
- titer ([3]; experiment 1, SF, selenium 0.017 μM): 0.4 g/L
- effect on titer ([3]; experiment 2, SF, selenium above 3 μM (FIG. 7)): titer decrease
- titer decrease ([4]; 2.31 μM versus 0.17 μM selenium (FIG. 11B)): 1 g/L
- viability (CHO cells [5]): below 80%

Structure (SMILES): [Cl][Cu][Cl] [copper, copper chloride]
- increase of amount of C-terminal α-amidated Pro (PAM enzyme [1]; experiment 1, SF, 10-fold increased copper (FIG. 4)): 2.5%
- amount of C-terminal α-amidated Pro (PAM enzyme [1]; experiment 2, DOE model, copper 0.06 μM): 2.1%
- amount of C-terminal α-amidated Pro (PAM enzyme [1]; experiment 2, DOE model, copper 0.18 μM): 2.2%

Structure (SMILES): [Cl-].[Cl-].[Zn+2] [zinc, zinc chloride]
- amount of C-terminal Lys (CP enzyme [6]; confirmation, SF, three parallels, 2.3 μM zinc (FIG. 10B)): 15.97%±0.79%
- amount of C-terminal Lys (CP enzyme [6]; confirmation, SF, three parallels, unchanged in-house medium, 22 μM zinc (FIG. 10B)): 1.99%±0.08%
- amount of C-terminal Lys (CP enzyme [6]; experiment 1, SF, 10-fold increased zinc (FIG. 6)): 8.5%
- amount of C-terminal Lys (CP enzyme [6]; experiment 1, SF, before 10-fold increase of zinc (FIG. 6)): 22%
- amount of C-terminal Lys (CP enzyme [6]; experiment 2, DOE model, zinc 0.15 μM (FIG. 9)): 15%
- amount of C-terminal Lys (CP enzyme [6]; experiment 2, DOE model, zinc 5.00 μM (FIG. 9)): 5%
- C-terminal Lys (CP enzyme [7]; 3.7 μM zinc (FIG. 14)): 6%
- C-terminal Lys (CP enzyme [7]; 22 μM zinc (FIG. 14)): 3.15%
- titer ([3]; experiment 1 (MinRes IV), SF, 14 days fed batch, zinc 2.201 μM): 0.4 g/L
- titer ([3]; experiment 1, SF, zinc 22.012 μM): 0.6 g/L
- titer ([3]; experiment 2 (central composite design), DOE model, zinc 7 μM (FIG. 7)): 0.4 g/L
- titer ([3]; experiment 2, DOE model, zinc 12 μM (FIG. 7)): above 0.6 g/L
- final titer ([4]; highest zinc concentration, 22 μM (FIG. 13B)): 3.86 g/L
- final titer ([4]; lowest zinc concentration, 3.7 μM (FIG. 13B)): 1.86 g/L
- final titer ([4]; zinc 11 μM (FIG. 13B)): 2.90 g/L
- cell culture growth (CHO cells [8]; 3.7 μM zinc (FIG. 13A)): significantly lower growth
- cell culture growth (CHO cells [8]; 11 μM compared with 22 μM zinc (FIG. 13A)): well comparable
